Measured values reported in US7074743B1, “Herbicidal composition comprising 4-iodo-2-[3-(4-methoxy-6-methyl-1,3,5-triazin-2-yl)ureidosulfonyl]benzoic esters” (priority 1995, dated 2006).

Assays:
Format in all cases: in vivo
Lolium multiflorum = experiment: Herbicidal action on LOLMU, visual scoring vs untreated, post-emergence 2-4 leaf stage
Method: (§1) The examples given below were performed in the greenhouse and, in some cases, in field trials.
(§2) The herbicides, or combinations, were applied in cereals after the weeds had emerged naturally using plot sprayers. After application, the results, such as damage to the crop plants and effect on broad-leaved weeds/grass weeds were assessed by means of visual scoring. The herbicidal action was assessed qualitatively and quantitatively by comparing untreated and treated plots on the basis of the effect on plant growth and the development of chloroses and necroses down to the complete destruction of the weeds (0–100%). The application was effected when the crop plants and weeds were in the 2–4 leaf stage. The test was evaluated approximately 4 weeks after application.
(§3) In the greenhouse experiments, the crop plants and broadleaved weeds/grass weeds were grown in No. 13 pots and treated in the 2–4 leaf stage. The pots were subsequently placed in the greenhouse under good growth conditions (temperature, atmospheric humidity, water supply).
(§4) The assessments were carried out similarly to those in the field trials, i.e. visual scoring of the treated plants in comparison with untreated control variants. These assessments were carried out 3 weeks after applying the test preparations and their combinations. The experiments had been set up in two replications.
(§5) To assess the combination effects, the activities of the individual components were added and compared with the activity of the mixtures in equal doses. It was frequently observed that the efficacies of the combinations exceeded the total of the individual activities.
(§6) In cases with less clear effects, the expected value was calculated using Colby's formula and compared with the empirically determined result. The calculated efficacy of a combination which is expected in theory is determined is using S.R. Colby's formula: “Calculation of synergistic and antagonistic responses of herbicide combinations”, Weeds 15 (1967), pages 20 to 22.
(§7) [formula] where • X=% damage caused by herbicide A at a rate of ×kg a.i./ha; • Y=% damage caused by herbicide B at a rate of y kg a.i./ha; • Z=% damage caused by a further herbicide C at a rate of z kg a.i./ha; • E=expected value, i.e. expected damage caused by herbicides A+B (or A+B+C) at x+y (or x+y+z) kg a.i./ha.
(§8) Synergistic effects were assumed to be when the empirical value exceeded the expected value. In the case of combinations with individual components with the same active substances, comparisons via the total formula were also possible.

Fallopia convolvulus = experiment: Herbicidal action on FALCO, visual scoring vs untreated, post-emergence 2-4 leaf stage
Method: as §1, §2, §3, §4, §5, §6, §7, §8

Apera spica venti = experiment: Herbicidal action on APESV, visual scoring vs untreated, post-emergence 2-4 leaf stage; conditions: Table 1
Method: as §1, §2, §3, §4, §5, §6, §7, §8

Gallium aparine = experiment: Herbicidal action on GALAP, visual scoring vs untreated, post-emergence 2-4 leaf stage
Method: as §1, §2, §3, §4, §5, §6, §7, §8

Zea mays = experiment: Damage to crop plant ZEAMA, visual scoring vs untreated
Method: as §1, §2, §3, §4

Centaurea cyanus = experiment: Herbicidal action on CENCY, visual scoring vs untreated, post-emergence 2-4 leaf stage
Method: as §1, §2, §3, §4, §5, §6, §7, §8

`COC(=O)c1ccc(I)cc1S(=O)(=O)NC(=O)Nc1nc(C)nc(OC)n1.[Na]` [A), sodium salt of methyl 4-iodo-2-[3-(4-methoxy-6-methyl-1,3,5-triazin-2-yl)ureidosulfonyl]benzoate] was tested, and the LOLMU % control (Lolium multiflorum; Table 2, 5 g of a.i./ha) was 5%, the LOLMU % control (Lolium multiflorum; Table 2, 10 g of a.i./ha) was 10% and the LOLMU % control (Lolium multiflorum; Table 2, 20 g of a.i./ha) was 48%. For the same compound, the LOLMU % control (Lolium multiflorum; Table 3, 3 g of a.i./ha) was 0%, the LOLMU % control (Lolium multiflorum; Table 3, 5 g of a.i./ha) was 5% and the LOLMU % control (Lolium multiflorum; Table 3, 10 g of a.i./ha) was 10%. For the same compound, the LOLMU % control (Lolium multiflorum; Table 3, 20 g of a.i./ha) was 48%, the LOLMU % control (Lolium multiflorum; Table 5, 2.5 g of a.i./ha) was 68% and the LOLMU % control (Lolium multiflorum; Table 5, 5 g of a.i./ha) was 75%. For the same compound, the LOLMU % control (Lolium multiflorum; Table 5, 10 g of a.i./ha) was 83%, the FALCO % control (Fallopia convolvulus; Table 5, 2.5 g of a.i./ha) was 73% and the FALCO % control (Fallopia convolvulus; Table 5, 5 g of a.i./ha) was 85%. It also gave an FALCO % control (Fallopia convolvulus; Table 5, 10 g of a.i./ha) of 88%, an FALCO % control (Fallopia convolvulus; Table 5, 20 g of a.i./ha) of 97% and an FALCO % control (Fallopia convolvulus; Table 5, 40 g of a.i./ha) of 98%. It also gave an FALCO % control (Fallopia convolvulus; Table 5, 80 g of a.i./ha) of 99%, an FALCO % control (Fallopia convolvulus; Table 5, 160 g of a.i./ha) of 99% and an FALCO % control (Fallopia convolvulus; Table 9, 2.5 g of a.i./ha) of 73%. The FALCO % control (Fallopia convolvulus; Table 9, 5 g of a.i./ha) was 85%, the FALCO % control (Fallopia convolvulus; Table 9, 10 g of a.i./ha) was 88% and the FALCO % control (Fallopia convolvulus; Table 9, 20 g of a.i./ha) was 97%. It also gave an FALCO % control (Fallopia convolvulus; Table 9, 40 g of a.i./ha) of 98%, an APESV % control (Apera spica venti; 3 g of a.i./ha) of 85% and an APESV % control (Apera spica venti; 5 g of a.i./ha) of 93%. It also gave an APESV % control (Apera spica venti; 10 g of a.i./ha) of 97%, an APESV % control (Apera spica venti; 20 g of a.i./ha) of 98% and a GALAP % control (Gallium aparine; Table 7, 2.5 g of a.i./ha) of 35%. The GALAP % control (Gallium aparine; Table 7, 5 g of a.i./ha) was 58%, the GALAP % control (Gallium aparine; Table 7, 10 g of a.i./ha) was 60% and the GALAP % control (Gallium aparine; Table 7, 20 g of a.i./ha) was 99%. For the same compound, the GALAP % control (Gallium aparine; Table 11, 5 g of a.i./ha) was 75%, the GALAP % control (Gallium aparine; Table 11, 10 g of a.i./ha) was 98% and the ZEAMA % damage (Zea mays; Table 4, 10 g of a.i./ha) was 0%. For the same compound, the ZEAMA % damage (Zea mays; Table 4, 20 g of a.i./ha) was 0%, the ZEAMA % damage (Zea mays; Table 4, 40 g of a.i./ha) was 0% and the ZEAMA % damage (Zea mays; Table 4, 80 g of a.i./ha) was 0%. It also gave a ZEAMA % damage (Zea mays; Table 8, 10 g of a.i./ha) of 0%, a ZEAMA % damage (Zea mays; Table 8, 20 g of a.i./ha) of 0% and a ZEAMA % damage (Zea mays; Table 8, 40 g of a.i./ha) of 0%. It also gave a ZEAMA % damage (Zea mays; Table 8, 80 g of a.i./ha) of 0%, a ZEAMA % damage (Zea mays; Table 12, 2.5 g of ai/ha) of 3% and a CENCY % control (Centaurea cyanus; Table 6, 5 g of a.i./ha) of 0%. For the same compound, the CENCY % control (Centaurea cyanus; Table 6, 10 g of a.i./ha) was 30%, the CENCY % control (Centaurea cyanus; Table 6, 15 g of a.i./ha) was 60% and the CENCY % control (Centaurea cyanus; Table 9, 2.5 g of a.i./ha) was 30%. It also gave a CENCY % control (Centaurea cyanus; Table 9, 5 g of a.i./ha) of 43%, a CENCY % control (Centaurea cyanus; Table 9, 10 g of a.i./ha) of 58% and a CENCY % control (Centaurea cyanus; Table 9, 20 g of a.i./ha) of 78%. For the same compound, the CENCY % control (Centaurea cyanus; Table 10, 5 g of a.i./ha) was 0%, the CENCY % control (Centaurea cyanus; Table 10, 10 g of a.i./ha) was 30% and the CENCY % control (Centaurea cyanus; Table 10, 15 g of a.i./ha) was 60%.
